From PubChem BioAssay AID330 (DTP/NCI, 2004)
Values joined by “and” are separate entries in the source; they are usually repeats but may differ in a detail not shown here. Equal entries are not always repeated. Toxic doses and inconclusive results are not listed.

Tested on: P388 leukemia ip, CD2F1 mice, survival T/C
Experiment: NCI In Vivo Anticancer Drug Screen. Data for tumor model P388 Leukemia (intraperitoneal) in CD2F1 (CDF1) mice
Conditions: endpoint: median survival time, higher = longer survival
Summary of the method: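 Mice carrying the transplanted tumor received test compound or vehicle. Survival was recorded in each group, and the value is the treated-group measurement divided by that of the vehicle-treated control group.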

SMILES: COc1cccc2c1C(=O)c1c(O)c3c(c(O)c1C2=O)C[C@@](O)(/C(C)=N/NC(=O)c1ccccc1)C[C@@H]3OC1CC(N)C(O)C(C)O1 (some centres undefined)
- T/C (dose: 0.12 mg/kg/injection, schedule: Q01DX009 (ip), vehicle: water): 99 % of control and 104 % of control and 89 % of control
- T/C (dose: 0.5 mg/kg/injection, schedule: Q01DX005 (ip), vehicle: suspension in saline): 120 % of control
- T/C (dose: 0.5 mg/kg/injection, schedule: Q01DX005 (iv), vehicle: suspension in saline): 109 % of control
- T/C (dose: 0.65 mg/kg/injection, schedule: Q01DX009 (ip), vehicle: saline): 168 % of control
- T/C (dose: 1.0 mg/kg/injection, schedule: Q01DX005 (iv), vehicle: suspension in saline): 110 % of control
- T/C (dose: 1.0 mg/kg/injection, schedule: Q01DX009 (ip), vehicle: other): 150 % of control
- T/C (dose: 1.08 mg/kg/injection, schedule: Q01DX009 (ip), vehicle: saline): 172 % of control
- T/C (dose: 1.56 mg/kg/injection, schedule: Q04DX003 (ip), vehicle: saline): 177 % of control
- T/C (dose: 1.8 mg/kg/injection, schedule: Q01DX009 (ip), vehicle: saline): 190 % of control
- T/C (dose: 2.0 mg/kg/injection, schedule: Q01DX005 (iv), vehicle: suspension in saline): 108 % of control
- T/C (dose: 2.0 mg/kg/injection, schedule: Q01DX009 (ip), vehicle: other): 166 % of control
- T/C (dose: 2.0 mg/kg/injection, schedule: Q04DX003 (ip), vehicle: water): 160 % of control
- T/C (dose: 3.0 mg/kg/injection, schedule: Q01DX009 (ip), vehicle: saline): 213 % of control
- T/C (dose: 3.0 mg/kg/injection, schedule: Q04DX003 (ip), vehicle: saline): 150 % of control
- T/C (dose: 3.0 mg/kg/injection, schedule: Q04DX003 (ip), vehicle: water): 115 % of control
- T/C (dose: 3.13 mg/kg/injection, schedule: Q04DX003 (ip), vehicle: saline): 176 % of control
- T/C (dose: 3.2 mg/kg/injection, schedule: Q01DX001 (ip), vehicle: water): 153 % of control
- T/C (dose: 3.24 mg/kg/injection, schedule: Q04DX003 (ip), vehicle: water): 153 % of control
- T/C (dose: 4.0 mg/kg/injection, schedule: Q01DX005 (ip), vehicle: saline): 181 % of control
- T/C (dose: 4.0 mg/kg/injection, schedule: Q01DX005 (iv), vehicle: saline): 104 % of control
- T/C (dose: 4.0 mg/kg/injection, schedule: Q01DX009 (ip), vehicle: other): 175 % of control
- T/C (dose: 4.2 mg/kg/injection, schedule: Q01DX001 (ip), vehicle: water): 158 % of control
- T/C (dose: 5.0 mg/kg/injection, schedule: Q01DX001 (ip), vehicle: saline): 168 % of control
- T/C (dose: 5.0 mg/kg/injection, schedule: Q04DX003 (ip), vehicle: saline): 163 % of control
- T/C (dose: 5.3 mg/kg/injection, schedule: Q01DX009 (ip), vehicle: saline): 157 % of control
- T/C (dose: 5.4 mg/kg/injection, schedule: Q04DX003 (ip), vehicle: water): 171 % of control
- T/C (dose: 5.6 mg/kg/injection, schedule: Q01DX001 (ip), vehicle: water): 165 % of control
- T/C (dose: 6.25 mg/kg/injection, schedule: Q04DX003 (ip), vehicle: saline): 205 % of control
- T/C (dose: 7.5 mg/kg/injection, schedule: Q01DX001 (ip), vehicle: water): 177 % of control
- T/C (dose: 8.0 mg/kg/injection, schedule: Q01DX001 (ip), vehicle: saline): 163 % of control
- T/C (dose: 8.0 mg/kg/injection, schedule: Q01DX005 (ip), vehicle: saline): 229 % of control
- T/C (dose: 8.0 mg/kg/injection, schedule: Q01DX005 (ip), vehicle: suspension in saline): 174 % of control
- T/C (dose: 8.0 mg/kg/injection, schedule: Q01DX005 (iv), vehicle: suspension in saline): 151 % of control
- T/C (dose: 8.0 mg/kg/injection, schedule: Q01DX009 (ip), vehicle: other): 189 % of control
- T/C (dose: 8.0 mg/kg/injection, schedule: Q01DX009 (ip), vehicle: saline): 90 % of control
- T/C (dose: 8.0 mg/kg/injection, schedule: Q04DX003 (ip), vehicle: saline): 163 % of control
- T/C (dose: 8.0 mg/kg/injection, schedule: Q04DX003 (ip), vehicle: water): 116 % of control and 190 % of control and 215 % of control
- T/C (dose: 8.3 mg/kg/injection, schedule: Q01DX009 (ip), vehicle: saline): 90 % of control
- T/C (dose: 9.0 mg/kg/injection, schedule: Q04DX003 (ip), vehicle: water): 175 % of control
- T/C (dose: 10.0 mg/kg/injection, schedule: Q01DX001 (ip), vehicle: clinical formulation): 160 % of control
- T/C (dose: 10.0 mg/kg/injection, schedule: Q01DX001 (ip), vehicle: water): 181 % of control
- T/C (dose: 12.0 mg/kg/injection, schedule: Q01DX001 (ip), vehicle: clinical formulation): 164 % of control
- T/C (dose: 12.5 mg/kg/injection, schedule: Q04DX003 (ip), vehicle: saline): 187 % of control
- T/C (dose: 13.3 mg/kg/injection, schedule: Q01DX001 (ip), vehicle: saline): 113 % of control
- T/C (dose: 13.3 mg/kg/injection, schedule: Q04DX003 (ip), vehicle: saline): 109 % of control
- T/C (dose: 14.0 mg/kg/injection, schedule: Q01DX001 (ip), vehicle: clinical formulation): 167 % of control
- T/C (dose: 16.0 mg/kg/injection, schedule: Q01DX001 (ip), vehicle: clinical formulation): 188 % of control
- T/C (dose: 16.0 mg/kg/injection, schedule: Q01DX005 (iv), vehicle: saline): 211 % of control
- T/C (dose: 16.0 mg/kg/injection, schedule: Q04DX003 (ip), vehicle: water): 180 % of control and 318 % of control
- T/C (dose: 18.0 mg/kg/injection, schedule: Q01DX001 (ip), vehicle: clinical formulation): 179 % of control
- T/C (dose: 22.2 mg/kg/injection, schedule: Q01DX001 (ip), vehicle: saline): 95 % of control
- T/C (dose: 24.0 mg/kg/injection, schedule: Q04DX003 (ip), vehicle: water): 171 % of control
- T/C (dose: 32.0 mg/kg/injection, schedule: Q04DX003 (ip), vehicle: water): 163 % of control and 233 % of control
- T/C (dose: 48.0 mg/kg/injection, schedule: Q04DX003 (ip), vehicle: water): 117 % of control
- T/C (dose: 64.0 mg/kg/injection, schedule: Q04DX003 (ip), vehicle: water): 109 % of control and 114 % of control
- T/C (dose: 96.0 mg/kg/injection, schedule: Q04DX003 (ip), vehicle: water): 89 % of control

SMILES: CC(/C=C/c1ccccc1)=N\Nc1ccc(Cl)cc1Cl
- T/C (dose: 50.0 mg/kg/injection, schedule: Q01DX009 (ip), vehicle: Klucel (hydroxypropylcellulose) (HPC)): 118 % of control
- T/C (dose: 100.0 mg/kg/injection, schedule: Q01DX009 (ip), vehicle: Klucel (hydroxypropylcellulose) (HPC)): 100 % of control

SMILES: COC(=O)C(NC(=O)C(NC(=O)c1c2nc3c(C(=O)NC(C(=O)NC(C(=O)OC)C(C)C)C(C)O)ccc(C)c3oc-2c(C)c(=O)c1N)C(C)O)C(C)C (centres undefined)
- T/C (dose: 0.05 mg/kg/injection, schedule: Q01DX009 (ip), vehicle: water): 117 % of control
- T/C (dose: 0.1 mg/kg/injection, schedule: Q01DX009 (ip), vehicle: water): 101 % of control
- T/C (dose: 0.2 mg/kg/injection, schedule: Q01DX009 (ip), vehicle: water): 99 % of control
- T/C (dose: 0.4 mg/kg/injection, schedule: Q01DX009 (ip), vehicle: water): 100 % of control
- T/C (dose: 0.8 mg/kg/injection, schedule: Q01DX009 (ip), vehicle: water): 99 % of control
- T/C (dose: 1.6 mg/kg/injection, schedule: Q01DX009 (ip), vehicle: water): 102 % of control and 90 % of control
- T/C (dose: 3.2 mg/kg/injection, schedule: Q01DX009 (ip), vehicle: water): 92 % of control
- T/C (dose: 6.4 mg/kg/injection, schedule: Q01DX009 (ip), vehicle: water): 99 % of control
- T/C (dose: 12.8 mg/kg/injection, schedule: Q01DX009 (ip), vehicle: water): 101 % of control

SMILES: CN1CCCN(C)C1c1ccccc1O
- T/C (dose: 12.5 mg/kg/injection, schedule: Q01DX009 (ip), vehicle: saline sonified): 100 % of control
- T/C (dose: 25.0 mg/kg/injection, schedule: Q01DX009 (ip), vehicle: saline sonified): 90 % of control
- T/C (dose: 50.0 mg/kg/injection, schedule: Q01DX009 (ip), vehicle: saline sonified): 100 % of control

SMILES: O/N=C1/CCN2CCCc3cccc1c32
- T/C (dose: 132.0 mg/kg/injection, schedule: Q01DX001 (ip), vehicle: saline with Tween-80): 95 % of control
- T/C (dose: 200.0 mg/kg/injection, schedule: Q01DX001 (ip), vehicle: saline with Tween-80): 100 % of control
- T/C (dose: 300.0 mg/kg/injection, schedule: Q01DX001 (ip), vehicle: saline with Tween-80): 100 % of control

SMILES: CCCCCCCCCCCCCCP(I)(N(C)C)(N(C)C)N(C)C
- T/C (dose: 0.1 mg/kg/injection, schedule: Q01DX009 (ip), vehicle: saline with Tween-80): 106 % of control
- T/C (dose: 0.19 mg/kg/injection, schedule: Q01DX009 (ip), vehicle: saline with Tween-80): 113 % of control
- T/C (dose: 0.38 mg/kg/injection, schedule: Q01DX009 (ip), vehicle: saline with Tween-80): 117 % of control

SMILES: O=S(=O)(OC(F)(F)F)C(F)(F)F
- T/C (dose: 24.5 mg/kg/injection, schedule: Q01DX001 (ip), vehicle: Klucel (hydroxypropylcellulose) (HPC)): 97 % of control
- T/C (dose: 49.0 mg/kg/injection, schedule: Q01DX001 (ip), vehicle: Klucel (hydroxypropylcellulose) (HPC)): 94 % of control
- T/C (dose: 98.0 mg/kg/injection, schedule: Q01DX001 (ip), vehicle: Klucel (hydroxypropylcellulose) (HPC)): 94 % of control
